Test results reported in US20100099793A1, “Gluing and Sealing Compounds Having Antimicrobial Properties” (Thor GmbH, priority 2006, published 2010).

Columns and labels:
[1] = system: mixture of fungal spores (Aspergillus niger, Alternaria alternata, Penicillium funiculosum, Paecilomyces variotii, Gliocladium virens, Chaetomium globosum); assay: Microbiological test along the lines of EN ISO 846 part B: fungal growth on sealant test specimens on complete agar; type: cell-based; parameters: key to Fungal growth after 28 d Method B Complete agar a / Fungal growth after 28 d Method B Complete agar b: 0: No growth evident when viewed with a microscope.; 1: Slight growth, no growth evident to the naked eye, readily apparent microscopically.; Slight growth, readily apparent macroscopically, growth over not more than 25% of the sample surface.; 3: Moderate growth, growth over up to 50% of the sample surface.; 4: Severe growth, growth over more than 50% of the sample surface, but not over the entire area.; 5: Severe growth over the entire sample surface; details: silicone; for Fungal growth after 28 d Method B Complete agar a: duplicate a; for Fungal growth after 28 d Method B Complete agar b: duplicate b
Experimental: The microbiological tests were carried out each in duplicate determinations along the lines of the standard EN ISO 846 B. For this purpose the sealants themselves were applied to inert support material (e.g., glass plates) approximately 2 mm thick, and, after curing, were cut into sections measuring 3×3 cm.
[…] In this test, the test specimens were placed on carbon-containing nutrient media (complete agar) for monitoring of the fungicidal action, and were then sprayed with a mixture of fungal spores; 0.1 ml of suspension per test specimen.
The spore suspension contained 10^6 CFU/ml and comprised the following fungi:
The samples thus inoculated were incubated at 25° C. for 28 days. This was followed by a visual evaluation of the sample surface. Where no growth was evident with the naked eye, the test took place with the assistance of a microscope. The ISO 846 tests were evaluated using the following scheme: • 0 No growth evident when viewed with a microscope. • 1 Slight growth, no growth evident to the naked eye, readily apparent microscopically. • 2 Slight growth, readily apparent macroscopically, growth over not more than 25% of the sample surface. • 3 Moderate growth, growth over up to 50% of the sample surface. • 4 Severe growth, growth over more than 50% of the sample surface, but not over the entire area. • 5 Severe growth over the entire sample surface.

[2] = Analysis for active in the sealant without and after water storage (retention / leaching); type: physicochemical; details: silicone; for Active [ppm] Oit: oxime basis, 1000 ppm added
Experimental: These sections, described below as test specimens, were subjected, both without water storage and after 2 days of water storage in fully demineralized water, with a change of water at 24 hours, to the ISO 846 test, part B. In this test, the test specimens were placed on carbon-containing nutrient media (complete agar) for monitoring of the fungicidal action, and were then sprayed with a mixture of fungal spores; 0.1 ml of suspension per test specimen.
These sealants were analyzed for the amounts of OIT present, both without water storage and after 2 days of water storage, and the leaching (%) was calculated.

[3] = acetoxy basis, 500 ppm, water storage 0 d
[4] = acetoxy basis, 500 ppm, water storage 3 months (once a week 24 hour storage in fully demineralized water)
[5] = acetoxy basis, 1000 ppm, water storage 0 d
[6] = acetoxy basis, 1000 ppm, water storage 3 months (once a week 24 hour storage in fully demineralized water)
[7] = oxime basis, 500 ppm, water storage 0 d
[8] = oxime basis, 500 ppm, water storage 2 d
[9] = oxime basis, 1000 ppm, water storage 0 d
[10] = oxime basis, 1000 ppm, water storage 2 d

In the case of `COC(=O)Nc1nc2ccccc2[nH]1` [carbendazim], the “Fungal growth after 28 d Method B Complete agar a” value [1, 3] is reported as 3 (Moderate growth, growth over up to 50% of the sample surface.), the “Fungal growth after 28 d Method B Complete agar b” value [1, 3] is reported as 4 (Severe growth, growth over more than 50% of the sample surface, but not over the entire area.) and the “Fungal growth after 28 d Method B Complete agar a” value [1, 4] is reported as 5. The “Fungal growth after 28 d Method B Complete agar b” value [1, 4] was 5, the “fungal colonization (in words)” value ([1]; acetoxy basis, 1000 ppm of active, without water storage (0d)) was “slight colonization” and the “Fungal growth after 28 d Method B Complete agar a” value [1, 5] was 2 (Slight growth, readily apparent macroscopically, growth over not more than 25% of the sample surface.). The “Fungal growth after 28 d Method B Complete agar b” value [1, 5] was 2 (Slight growth, readily apparent macroscopically, growth over not more than 25% of the sample surface.), the “Fungal growth after 28 d Method B Complete agar a” value [1, 6] was 4 (Severe growth, growth over more than 50% of the sample surface, but not over the entire area.) and the “Fungal growth after 28 d Method B Complete agar b” value [1, 6] was 5. For the same molecule, the “fungal growth (in words)” value ([1]; acetoxy basis, both 500 and 1000 ppm, after the 3-month water storage cycle) was “severe fungal growth”.

With `CCCCCCCCn1sccc1=O` [OIT, 2-n-octyl-4-isothiazolin-3-one] the “Fungal growth after 28 d Method B Complete agar a” value [1, 3] was 1, the “Fungal growth after 28 d Method B Complete agar b” value [1, 3] was 2 (Slight growth, readily apparent macroscopically, growth over not more than 25% of the sample surface.) and the “Fungal growth after 28 d Method B Complete agar a” value [1, 4] was 5. For the same molecule, the “Fungal growth after 28 d Method B Complete agar b” value [1, 4] was 5, the “Fungal growth after 28 d Method B Complete agar a” value [1, 5] was 0 and the “Fungal growth after 28 d Method B Complete agar b” value [1, 5] was 0. For the same molecule, the “Fungal growth after 28 d Method B Complete agar a” value [1, 6] was 4 (Severe growth, growth over more than 50% of the sample surface, but not over the entire area.), the “Fungal growth after 28 d Method B Complete agar b” value [1, 6] was 5 and the “fungal growth (in words)” value ([1]; acetoxy basis, after the 3-month water storage cycles) was “heavily overgrown”. For the same molecule, the “fungal growth / action (in words)” value ([1]; acetoxy basis, without water storage (0d)) was “good action”, the “Fungal growth after 28 d Method B Complete agar a” value [1, 7] was 0 and the “Fungal growth after 28 d Method B Complete agar b” value [1, 7] was 1. For the same molecule, the “Fungal growth after 28 d Method B Complete agar a” value [1, 8] was 3 (Moderate growth, growth over up to 50% of the sample surface.), the “Fungal growth after 28 d Method B Complete agar b” value [1, 8] was 3 (Moderate growth, growth over up to 50% of the sample surface.) and the “Fungal growth after 28 d Method B Complete agar a” value [1, 9] was 0. The “Fungal growth after 28 d Method B Complete agar b” value [1, 9] was 0, the “Fungal growth after 28 d Method B Complete agar a” value [1, 10] was 3 (Moderate growth, growth over up to 50% of the sample surface.) and the “Fungal growth after 28 d Method B Complete agar b” value [1, 10] was 2 (Slight growth, readily apparent macroscopically, growth over not more than 25% of the sample surface.). The “fungal growth (in words)” value ([1]; oxime basis, after water storage (2d)) was “moderately severe growth”, the “Amount of active (ppm) With water storage” value ([2]; acetoxy system, 400 ppm of OIT introduced, after 2 days of water storage) was 265 ppm and the “% leaching” value ([2]; acetoxy system, 400 ppm of OIT introduced, calculated from amounts without and after 2 days of water storage) was 37%. The “Amount of active (ppm) Without water storage” value ([2]; acetoxy system, 400 ppm of OIT introduced, without water storage) was 420 ppm, the “Active [ppm] Oit” value ([2]; 0 d (before water storage)) was 740 ppm and the “Active [ppm] Oit” value ([2]; 2 d (after water storage)) was 230 ppm.
